{
  "source": "patent US7303876B2",
  "about": "(Applera Corporation, priority 2000, dated 2007)",
  "key": {"slices of liver": {"tested_on": "slices of liver", "experiment": "Maceration of liver slices by reaction compositions at 65° C.", "protocol": "Initially, a series of reaction compositions were analyzed for their ability to disaggregate a biological sample, e.g., slices of liver. These reaction compositions comprised 100 mM Tris, pH 8.0, 20 mM dithiothreitol (DTT), and optionally,1 mg/ml Proteinase K, surfactants (e.g., cationic, nonionic and anionic detergents), chaotropes, or the additive 1-methyl-2-pyrollidinone (Sigma). Each reaction compositions was placed in a tube with a slice of liver and then incubated at 65° C. The tubes were observed periodically to determine which reaction compositions were able to efficiently macerate the sample."}, "Liver tissue": {"tested_on": "Liver tissue", "experiment": "Liver tissue disaggregation by 1% surfactant with or without Proteinase K at 60° C.", "set-up": "Tissue Disaggregation: scale not given here", "conditions": "60° C., 1% surfactant", "protocol": "To evaluate the ability of various cationic surfactants to increase the digestion of tissue by Proteinase K, liver slices were digested using reaction compositions including one of the sixteen surfactants (shown in Table 4), both with and without Proteinase K. The reducing agent dithiothreitol (DTT) was included to evaluate the effect of reducing conditions on tissue digestion. […] One of the sixteen surfactants was added to one pair of tubes to yield a final concentration of 1% surfactant. The seventeenth pair of tubes served as non-surfactant controls. One milligram (mg) of Proteinase K was added to one tube of each of the seventeen pairs.\nPK=presence or absence of Proteinase K in the reaction composition; Y=Proteinase K was present; N=Proteinase K was not present in the reaction composition."}, "[1]": {"experiment": "Solubility of surfactants (0.5% Sarkosyl, LDS, SDS, CTAB; 5.0% others) in salt solutions", "protocol": "In certain instances, the solubility of detergents in high salt may relate to on the composition of the salt and the detergent itself. A mixing experiment was performed to examine the solubility of a variety of anionic, cationic, and nonionic surfactants in different salt compositions. […] The salt solutions contained Lil, Nal, KI, Rbl, Csl , GuSCN, GuHCl, or NaClO4, at pH 6.0 or 10.0. […] The solubility of the surfactants was scored as either soluble or insoluble. The solubility of the surfactant in the salt solution was determined initially by visual observations for cloudiness or precipitate formation. The resulting solutions were also centrifuged to verify the absence of a precipitate by the absence of a precipitate pellet."}, "[2]": {"conditions": "No Proteinase K, 72 hr, 65° C., additive 2%"}, "[3]": {"conditions": "Fifteen Minutes Incubation, Proteinase K not present (N)"}, "[4]": {"conditions": "Fifteen Minutes Incubation, Proteinase K present (Y)"}, "[5]": {"conditions": "Fifty-Two Minutes Incubation, Proteinase K not present (N)"}, "[6]": {"conditions": "Fifty-Two Minutes Incubation, Proteinase K present (Y)"}, "[7]": {"conditions": "1 mg/ml Proteinase K, 16-24 hr, 65° C., additive 0.1%"}, "[8]": {"conditions": "1 mg/ml Proteinase K, 16-24 hr, 65° C., additive 1%"}, "[9]": {"conditions": "1 mg/ml Proteinase K, 1 hr, 65° C., additive 0.1%"}, "[10]": {"conditions": "1 mg/ml Proteinase K, 1 hr, 65° C., additive 1%"}},
  "note": "Like-named read-outs stand apart in the source and are kept apart here.",
  "data": [
    {"compound": "CCCCCCCC(=O)O", "note": "[Octanonic Acid]", "values": [
      {"measurement": "maceration of liver slice", "setting": "slices of liver; [2]", "result": 0, "unit": "%"}
    ]},
    {"compound": "CCCCCCCCS(=O)(=O)O", "note": "[Octyl sulfonate]", "values": [
      {"measurement": "maceration of liver slice", "setting": "slices of liver; [2]", "result": 0, "unit": "%"}
    ]},
    {"compound": "CCCCCCCCCCCCCC[N+](C)(C)C.[Br-]", "note": "[TTAB, tetradecyltrimethylammonium bromide]", "values": [
      {"measurement": "Tissue Disaggregation", "setting": "Liver tissue; [3]", "result": 0},
      {"measurement": "Tissue Disaggregation", "setting": "Liver tissue; [4]", "result": 0},
      {"measurement": "Tissue Disaggregation", "setting": "Liver tissue; [5]", "result": 0},
      {"measurement": "Tissue Disaggregation", "setting": "Liver tissue; [6]", "result": 1}
    ]},
    {"compound": "C[C@H](CCC(=O)NCCS(=O)(=O)O)[C@H]1CC[C@H]2[C@@H]3[C@H](O)C[C@@H]4C[C@H](O)CC[C@]4(C)[C@H]3CC[C@]12C", "note": "[Taurochenodeoxycholic Acid]", "values": [
      {"measurement": "maceration of liver slice", "setting": "slices of liver; [7]", "result": 0, "unit": "%"},
      {"measurement": "maceration of liver slice", "setting": "slices of liver; [8]", "result": 0, "unit": "%"},
      {"measurement": "maceration of liver slice", "setting": "slices of liver; [9]", "result": 0, "unit": "%"},
      {"measurement": "maceration of liver slice", "setting": "slices of liver; [10]", "result": 0, "unit": "%"}
    ]},
    {"compound": "C[C@H](CCC(=O)NCCS(=O)(=O)O)[C@H]1CC[C@H]2[C@@H]3[C@H](O)C[C@@H]4C[C@H](O)CC[C@]4(C)[C@H]3C[C@H](O)[C@]12C", "note": "[Taurocholic Acid]", "values": [
      {"measurement": "maceration of liver slice", "setting": "slices of liver", "result": 0, "unit": "%"}
    ]},
    {"compound": "C[C@H](CCC(=O)NCCS(=O)(=O)O)[C@H]1CC[C@H]2[C@@H]3CC[C@@H]4C[C@H](O)CC[C@]4(C)[C@H]3C[C@H](O)[C@]12C", "note": "[Taurodeoxycholic Acid]", "values": [
      {"measurement": "maceration of liver slice", "setting": "slices of liver; [7]", "result": 0, "unit": "%"},
      {"measurement": "maceration of liver slice", "setting": "slices of liver; [8]", "result": 0, "unit": "%"},
      {"measurement": "maceration of liver slice", "setting": "slices of liver; [9]", "result": 0, "unit": "%"},
      {"measurement": "maceration of liver slice", "setting": "slices of liver; [10]", "result": 0, "unit": "%"}
    ]},
    {"compound": "C[N+](C)(C)C.[Cl-]", "note": "[Tetramethylammonium chloride]", "values": [
      {"measurement": "maceration of liver slice", "setting": "slices of liver; 1 mg/ml Proteinase K, 16-24 hr, 65° C., additive 0.1 M", "result": 0, "unit": "%"},
      {"measurement": "maceration of liver slice", "setting": "slices of liver; 1 mg/ml Proteinase K, 16-24 hr, 65° C., additive 1 M", "result": 0, "unit": "%"},
      {"measurement": "maceration of liver slice", "setting": "slices of liver; 1 mg/ml Proteinase K, 1 hr, 65° C., additive 0.1 M", "result": 0, "unit": "%"},
      {"measurement": "maceration of liver slice", "setting": "slices of liver; 1 mg/ml Proteinase K, 1 hr, 65° C., additive 1 M", "result": 0, "unit": "%"},
      {"measurement": "maceration of liver slice", "setting": "slices of liver; No Proteinase K, 16-24 hr, 65° C., additive 0.1 M", "result": 0, "unit": "%"},
      {"measurement": "maceration of liver slice", "setting": "slices of liver; No Proteinase K, 16-24 hr, 65° C., additive 1 M", "result": 0, "unit": "%"}
    ]},
    {"compound": "(octylphenoxy)polyethoxyethanol [IGEPA]", "values": [
      {"measurement": "Solubility of surfactant", "setting": "[1]; pH 6", "result": "S"},
      {"measurement": "Solubility of surfactant", "setting": "[1]; pH 10", "result": "S"}
    ]},
    {"compound": "Benzalkonium Chloride", "values": [
      {"measurement": "Tissue Disaggregation", "setting": "Liver tissue; [3]", "result": 0},
      {"measurement": "Tissue Disaggregation", "setting": "Liver tissue; [4]", "result": 1},
      {"measurement": "Tissue Disaggregation", "setting": "Liver tissue; [5]", "result": 0},
      {"measurement": "Tissue Disaggregation", "setting": "Liver tissue; [6]", "result": 2}
    ]},
    {"compound": "Quaternium-84 [Mackernium NLE]", "values": [
      {"measurement": "Tissue Disaggregation", "setting": "Liver tissue; [3]", "result": 0},
      {"measurement": "Tissue Disaggregation", "setting": "Liver tissue; [4]", "result": 1},
      {"measurement": "Tissue Disaggregation", "setting": "Liver tissue; [5]", "result": 0},
      {"measurement": "Tissue Disaggregation", "setting": "Liver tissue; [6]", "result": 1}
    ]},
    {"compound": "polyoxyethylenesorbitan monolaurate [Tween 21]", "values": [
      {"measurement": "Solubility of surfactant", "setting": "[1]; pH 6", "result": "S"},
      {"measurement": "Solubility of surfactant", "setting": "[1]; pH 10", "result": "S"}
    ]},
    {"compound": "polyoxyethylenesorbitan monooleate [Tween 80]", "values": [
      {"measurement": "Solubility of surfactant", "setting": "[1]; pH 6", "result": "S"},
      {"measurement": "Solubility of surfactant", "setting": "[1]; pH 10", "result": "S"},
      {"measurement": "maceration of liver slice", "setting": "slices of liver; [7]", "result": 0, "unit": "%"},
      {"measurement": "maceration of liver slice", "setting": "slices of liver; [8]", "result": 0, "unit": "%"},
      {"measurement": "maceration of liver slice", "setting": "slices of liver; [9]", "result": 0, "unit": "%"},
      {"measurement": "maceration of liver slice", "setting": "slices of liver; [10]", "result": 0, "unit": "%"}
    ]},
    {"compound": "polyoxyethylenesorbitan monopalmitate [Tween 40]", "values": [
      {"measurement": "Solubility of surfactant", "setting": "[1]; pH 6", "result": "S"},
      {"measurement": "Solubility of surfactant", "setting": "[1]; pH 10", "result": "S"}
    ]},
    {"compound": "polyoxyethylenesorbitan monostearate [Tween 60]", "values": [
      {"measurement": "Solubility of surfactant", "setting": "[1]; pH 6", "result": "S"},
      {"measurement": "Solubility of surfactant", "setting": "[1]; pH 10", "result": "S"}
    ]},
    {"compound": "t-octylphenoxypolyethoxyethanol [Triton X-100]", "values": [
      {"measurement": "Solubility of surfactant", "setting": "[1]; pH 6", "result": "S"},
      {"measurement": "Solubility of surfactant", "setting": "[1]; pH 10", "result": "S"},
      {"measurement": "maceration of liver slice", "setting": "slices of liver; [7]", "result": 0, "unit": "%"},
      {"measurement": "maceration of liver slice", "setting": "slices of liver; [8]", "result": 100, "unit": "%"},
      {"measurement": "maceration of liver slice", "setting": "slices of liver; [9]", "result": 0, "unit": "%"},
      {"measurement": "maceration of liver slice", "setting": "slices of liver; [10]", "result": 30, "unit": "%"},
      {"measurement": "maceration of liver slice", "setting": "slices of liver; No Proteinase K, 2-5 hr, 65° C., additive 2%", "result": 0, "unit": "%"},
      {"measurement": "maceration of liver slice", "setting": "slices of liver; No Proteinase K, 16-24 hr, 65° C., additive 2%", "result": 0, "unit": "%"}
    ]}
  ]
}
